Measurements: PubChem BioAssay (NCI)
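In this assay, cells in 96-well plates receive the compound at five concentrations for 48 hours. Endpoints are linearly interpolated between the surrounding concentrations. TGI marks complete inhibition of growth.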

Legend:
Assay in all cases: NCI-60 cell line screen, 48 h
MALME-3M melanoma = test system: MALME-3M melanoma
IGROV1 ovarian = test system: IGROV1 ovarian
HOP-18 NSCLC = test system: HOP-18 NSCLC
SR leukemia = test system: SR leukemia
DLD-1 colon = test system: DLD-1 colon
DMS 273 small cell lung = test system: DMS 273 small cell lung
XF 498 CNS = test system: XF 498 CNS
UACC-62 melanoma = test system: UACC-62 melanoma
OVCAR-3 ovarian = test system: OVCAR-3 ovarian
NCI-H23 lung = test system: NCI-H23 lung
UO-31 renal = test system: UO-31 renal
SF-539 CNS = test system: SF-539 CNS
SF-268 CNS = test system: SF-268 CNS
SK-MEL-5 melanoma = test system: SK-MEL-5 melanoma
RPMI-8226 leukemia = test system: RPMI-8226 leukemia
K-562 leukemia = test system: K-562 leukemia
SN12C renal = test system: SN12C renal
HL-60(TB) leukemia = test system: HL-60(TB) leukemia
SK-MEL-2 melanoma = test system: SK-MEL-2 melanoma
SNB-19 CNS = test system: SNB-19 CNS
EKVX NSCLC = test system: EKVX NSCLC
NCI-H460 lung = test system: NCI-H460 lung
HT29 colon = test system: HT29 colon
SK-MEL-28 melanoma = test system: SK-MEL-28 melanoma
UACC-257 melanoma = test system: UACC-257 melanoma
CCRF-CEM leukemia = test system: CCRF-CEM leukemia
CAKI-1 renal = test system: CAKI-1 renal
KM12 colon = test system: KM12 colon
M14 melanoma = test system: M14 melanoma
U251 CNS = test system: U251 CNS
HOP-92 NSCLC = test system: HOP-92 NSCLC
KM20L2 colon = test system: KM20L2 colon
M19-MEL melanoma = test system: M19-MEL melanoma
SK-OV-3 ovarian = test system: SK-OV-3 ovarian
SW-620 colon = test system: SW-620 colon
LXFL 529 NSCLC = test system: LXFL 529 NSCLC
HOP-62 NSCLC = test system: HOP-62 NSCLC
NCI-H522 lung = test system: NCI-H522 lung
NCI-H226 lung = test system: NCI-H226 lung
HCT-116 colon = test system: HCT-116 colon
SF-295 CNS = test system: SF-295 CNS
OVCAR-8 ovarian = test system: OVCAR-8 ovarian
TK-10 renal = test system: TK-10 renal
OVCAR-5 ovarian = test system: OVCAR-5 ovarian
SNB-78 CNS = test system: SNB-78 CNS
LOX IMVI melanoma = test system: LOX IMVI melanoma
786-0 renal = test system: 786-0 renal
A549 NSCLC = test system: A549 NSCLC
ACHN renal = test system: ACHN renal
HCT-15 colon = test system: HCT-15 colon
OVCAR-4 ovarian = test system: OVCAR-4 ovarian
HCC-2998 colon = test system: HCC-2998 colon
RXF 393 renal = test system: RXF 393 renal
SNB-75 CNS = test system: SNB-75 CNS
COLO 205 colon = test system: COLO 205 colon
A498 renal = test system: A498 renal
DMS 114 small cell lung = test system: DMS 114 small cell lung
MOLT-4 leukemia = test system: MOLT-4 leukemia
MCF7 breast = test system: MCF7 breast
MDA-MB-231 breast = test system: MDA-MB-231 breast
DU-145 prostate = test system: DU-145 prostate
PC-3 prostate = test system: PC-3 prostate
HS 578T breast = test system: HS 578T breast
BT-549 breast = test system: BT-549 breast
MDA-N = test system: MDA-N
NCI/ADR-RES ovarian = test system: NCI/ADR-RES ovarian
T-47D breast = test system: T-47D breast
MDA-MB-435 = test system: MDA-MB-435

Measured: TGI

Cc1ccc(C(=O)O/N=C2/CCCC/C2=C\c2ccccc2)cc1
28.2 µM: SF-268 CNS
65.3 µM: SK-MEL-28 melanoma
76.9 µM: DMS 273 small cell lung
45.1 µM: HL-60(TB) leukemia
44.2 µM: LOX IMVI melanoma
31.5 µM: UO-31 renal
31.7 µM: NCI-H522 lung
30.9 µM: LXFL 529 NSCLC
38.6 µM: K-562 leukemia
32.7 µM: HCT-116 colon
53.4 µM: SNB-78 CNS
39.3 µM: A549 NSCLC
not listed: A498 renal | DMS 114 small cell lung | MOLT-4 leukemia | MCF7 breast | MDA-MB-231 breast | DU-145 prostate | PC-3 prostate | HS 578T breast | BT-549 breast | MDA-N | NCI/ADR-RES ovarian | T-47D breast | MDA-MB-435
> 100 µM: all other assays above

NNC(=S)N/N=C(\CCCC(=O)NCCc1ccccc1)CC(=O)c1ccccc1
not listed: DMS 273 small cell lung | XF 498 CNS | RPMI-8226 leukemia | K-562 leukemia | CCRF-CEM leukemia | CAKI-1 renal | SK-OV-3 ovarian | NCI-H226 lung | LOX IMVI melanoma | SNB-75 CNS | MOLT-4 leukemia | MCF7 breast | MDA-MB-231 breast | DU-145 prostate | PC-3 prostate | HS 578T breast | BT-549 breast | MDA-N | NCI/ADR-RES ovarian | T-47D breast | MDA-MB-435
> 100 µM: all other assays above

C#CCC[C@@H]1O[C@@]1(C)CC/C=C(\C)CC/C=C/C=O
35.2 µM: LOX IMVI melanoma
39 µM: DMS 273 small cell lung
85.9 µM: OVCAR-3 ovarian
51.4 µM: SW-620 colon
35.1 µM: DMS 114 small cell lung
38.3 µM: OVCAR-8 ovarian
60.8 µM: HL-60(TB) leukemia
79.4 µM: SF-295 CNS
63.5 µM: HOP-92 NSCLC
56.4 µM: RPMI-8226 leukemia
56.3 µM: SF-268 CNS
52.9 µM: MOLT-4 leukemia
77.3 µM: SNB-78 CNS
36.6 µM: UACC-62 melanoma
48.1 µM: M19-MEL melanoma
49.6 µM: IGROV1 ovarian
54 µM: K-562 leukemia
> 100 µM: SR leukemia | NCI-H23 lung | UO-31 renal | SN12C renal | SK-MEL-2 melanoma | SNB-19 CNS | EKVX NSCLC | NCI-H460 lung | HT29 colon | KM12 colon | KM20L2 colon | SK-OV-3 ovarian | HOP-62 NSCLC | NCI-H226 lung | OVCAR-5 ovarian | 786-0 renal | A549 NSCLC | ACHN renal | HCT-15 colon | RXF 393 renal | SNB-75 CNS | COLO 205 colon
48.3 µM: MALME-3M melanoma | M14 melanoma
58.2 µM: XF 498 CNS
64.8 µM: CCRF-CEM leukemia
51.1 µM: LXFL 529 NSCLC
39.3 µM: U251 CNS
38.7 µM: SF-539 CNS
69.7 µM: UACC-257 melanoma

CCOc1ccc2nc(NC(=O)C(=O)C(C(=O)c3ccccc3-c3ccccc3)C3OC(=O)c4ccccc43)sc2c1 (stereo unspecified)
> 72.6 µM: SK-OV-3 ovarian
32 µM: NCI-H522 lung
48.1 µM: A498 renal
32.5 µM: KM12 colon
53.2 µM: CAKI-1 renal
36.3 µM: SNB-19 CNS
35 µM: DMS 114 small cell lung
> 68 µM: IGROV1 ovarian
65.1 µM: MDA-MB-435
36.7 µM: SF-539 CNS
52.4 µM: RPMI-8226 leukemia
79.5 µM: SF-268 CNS
99.6 µM: MOLT-4 leukemia
41.7 µM: PC-3 prostate
41.1 µM: LXFL 529 NSCLC
61.6 µM: SNB-75 CNS
> 93.8 µM: SF-295 CNS
89.8 µM: OVCAR-3 ovarian
44.2 µM: M19-MEL melanoma
68.7 µM: HL-60(TB) leukemia
60.7 µM: T-47D breast
> 96 µM: UACC-257 melanoma
42.7 µM: NCI-H460 lung
> 71.2 µM: A549 NSCLC
43 µM: SR leukemia
> 67 µM: K-562 leukemia
18.1 µM: RXF 393 renal
41.9 µM: TK-10 renal
54.6 µM: KM20L2 colon
47.5 µM: EKVX NSCLC
21.5 µM: NCI-H226 lung
33.7 µM: HCT-116 colon
34.6 µM: 786-0 renal
60.1 µM: SK-MEL-2 melanoma | SW-620 colon
25.7 µM: OVCAR-8 ovarian
34.8 µM: MALME-3M melanoma | UACC-62 melanoma
99.3 µM: HOP-62 NSCLC
37 µM: COLO 205 colon
> 62.4 µM: HCT-15 colon
49.1 µM: XF 498 CNS
31.7 µM: U251 CNS
39.4 µM: LOX IMVI melanoma
52.8 µM: UO-31 renal
46.8 µM: HOP-92 NSCLC
56.1 µM: DU-145 prostate
47.4 µM: NCI-H23 lung
37.9 µM: NCI/ADR-RES ovarian
43.6 µM: HT29 colon
81.7 µM: BT-549 breast
70.9 µM: MDA-N
54.2 µM: SK-MEL-28 melanoma
33.1 µM: HCC-2998 colon
> 67.2 µM: M14 melanoma
64.2 µM: CCRF-CEM leukemia
51.9 µM: SN12C renal
31.3 µM: SK-MEL-5 melanoma
70.8 µM: MDA-MB-231 breast
not listed: HOP-18 NSCLC
> 100 µM: all other assays above

CCCNC1CC(n2cc(C)c(=O)[nH]c2=O)OC1CO (stereo unspecified)
not listed: HOP-18 NSCLC | XF 498 CNS | OVCAR-3 ovarian | SK-MEL-5 melanoma | SNB-19 CNS | EKVX NSCLC | HT29 colon | UACC-257 melanoma | KM12 colon | U251 CNS | KM20L2 colon | SW-620 colon | SF-295 CNS | OVCAR-8 ovarian | TK-10 renal | OVCAR-5 ovarian | LOX IMVI melanoma | A549 NSCLC | HCT-15 colon | RXF 393 renal | A498 renal | MCF7 breast | MDA-MB-231 breast | DU-145 prostate | PC-3 prostate | HS 578T breast | BT-549 breast | MDA-N | NCI/ADR-RES ovarian | T-47D breast | MDA-MB-435
> 100 µM: all other assays above

O=C(O)CCCl
4970 µM: MALME-3M melanoma
4740 µM: UACC-62 melanoma
not listed: XF 498 CNS | OVCAR-3 ovarian | SNB-19 CNS | EKVX NSCLC | KM20L2 colon | HCC-2998 colon | A498 renal | DMS 114 small cell lung | MCF7 breast | MDA-MB-231 breast | DU-145 prostate | PC-3 prostate | HS 578T breast | BT-549 breast | MDA-N | NCI/ADR-RES ovarian | T-47D breast | MDA-MB-435
> 5000 µM: all other assays above

C1OCC2S[C@@H]3COCO[C@@H]3C2O1 (stereo partly specified)
not listed: IGROV1 ovarian | HOP-18 NSCLC | SK-MEL-2 melanoma | HOP-92 NSCLC | SW-620 colon | MCF7 breast | MDA-MB-231 breast | DU-145 prostate | PC-3 prostate | HS 578T breast | BT-549 breast | MDA-N | NCI/ADR-RES ovarian | T-47D breast | MDA-MB-435
> 100 µM: all other assays above
